In patent US12491185B2, “Inhibitors of mPTP” (NRG Therapeutics Ltd, priority 2023, dated 2025):

Key:
[1] = system: mPTP; experiment: mPTP activity assay in isolated rat brain mitochondria; assay type: biochemical; conditions: for mPTP Rat brain pIC50: fluorescence at 10 min timepoint
Method: MPTP activity was measured in brain mitochondria freshly isolated from female Sprague Dawley (250 to 300 gram) rats. Anaesthetised rats were perfused in-situ with −40 ml cold Dulbecco's Phosphate Buffered Saline (DPBS), then brains dissected and transferred into 30 ml Isolation Buffer (225 mM mannitol, 75 mM sucrose, 1 mM EGTA, adjusted to pH 7.4 with 1M NaOH). The brain was minced using tweezers and a scalpel into −5 mm pieces then transferred into a 50 ml Potterton Dounce homogenization tube on ice containing 10 ml ice-cold isolation buffer (as above with addition of Complete Protease inhibitor; 1 tablet per 50 ml buffer). Homogenisation was carried out using a teflon pestle at 1800 rpm. The slurry was centrifuged at 2000 g for 10 min at 4° C., then the supernatant centrifuged at 12,000 g for 9 min. The pellet was resuspended with a dounce homogeniser in isolation buffer as above but with the addition of 0.02% digitonin, centrifuged at 12,000 g for 11 min and finally resuspended in 5 ml modified isolation buffer (as above but with EGTA reduced to 0.1 mM).
Test compounds were prepared in 384 well polypropylene assay plates as described above for the liver mitochondria assay. A stock mitochondria/Fluo5N assay solution was prepared in 5.6 ml assay buffer (120 mM mannitol, 40 mM MOPS, 5 mM KH2PO4, 60 mM KCl, 10 mM pyruvate, 2 mM malate, 2 mM MgCl2, 20 μM ADP, 1.26 μM oligomycin A, adjusted to pH 7.4) supplemented with Fluo5N pentapotassium salt (2 μM) and 1 ml mitochondria suspension, then transferred (15 μl) into the assay plate containing test compounds and incubated for 10 min at RT. Assay plates were then transferred to a FLIPR Tetra plate reader (Molecular Devices). Dye fluorescence was then measured every 3 sec for a total of 10 min.

[2] = system: mPTP; experiment: mPTP activity (Ca2+ retention) assay in isolated rat liver mitochondria; assay type: biochemical; conditions: examples tested by different contract research organisations, believed comparable
Method in brief: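 pIC50 was taken from Fluo5N fluorescence at 10 min after a 75 μM CaCl2 bolus, scaled between DMSO (0%) and 5 μM cyclosporin A (100%). Compounds, ten half-log concentrations from 30 μM to 1 nM final, sat 10 min at RT with fresh female Sprague Dawley rat liver mitochondria energized by succinate plus rotenone.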

Compound | mPTP Rat brain pIC50 [1] | mPTP Rat liver pIC50 [2] | mPTP rat brain mitochondria pIC50 ([1]; Fluo5N fluorescence at 10 min after 75 μM Ca2+)
O=C(NCC1(Cc2ccc(F)cc2F)CC12CC2)c1noc(=O)[nH]1 (single isomer, unassigned) [Example 234] | 6.30 | 5.24 | 
O=C(NCC1(Cc2ccc(F)cc2F)CC12CC2)c1nccc(=O)[nH]1 (single isomer, unassigned) [Example 236] | 7.18 | 6.11 | 
CC(c1ccc(F)cc1F)[C@@H](CNC(=O)c1nn(C)c(=O)[nH]1)C1CC1 (single isomer, unassigned) [Example 237] | 7.46 | 6.56 | 
Cn1nc(C(=O)NCC(C)(Cc2ccc(F)cc2F)C2CC2)[nH]c1=O (single isomer, unassigned) [Example 240, N-(2-cyclopropyl-3-(2,4-difluorophenyl)-2-methylpropyl)-1-methyl-5-oxo-4,5-dihydro-1H-1,2,4-triazole-3-carboxamide] | 7.61 | 6.91 | 
O=C(NCC1(Cc2ccc(F)cc2F)CC(F)C1)c1nccc(=O)[nH]1 (single isomer, unassigned) [Example 248] | 7.05 | 6.16 | 
CC(CNC(=O)c1nccc(=O)[nH]1)(Cc1ccc(F)cc1)C1CC1 (single isomer, unassigned) [Example 251] | 7.06 | 6.21 | 
CCC(F)(CNC(=O)c1nccc(=O)[nH]1)Cc1ccc(F)cc1F (single isomer, unassigned) [Example 255, N-(2-(2,4-difluorobenzyl)-2-fluorobutyl)-6-oxo-1,6-dihydropyrimidine-2-carboxamide] | 7.29 | 6.45 | 
CCC(F)(CNC(=O)c1nccc(=O)[nH]1)Cc1ccc(F)cc1F (single isomer, unassigned) [Example 256, N-(2-(2,4-difluorobenzyl)-2-fluorobutyl)-6-oxo-1,6-dihydropyrimidine-2-carboxamide] | 6.13 | 5.09 | 
CC(CNC(=O)c1ncc(F)c(=O)[nH]1)(Cc1ccc(F)cc1F)C1CC1 (single isomer, unassigned) [Example 257, N-[2-cyclopropyl-3-(2,4-difluorophenyl)-2-methylpropyl]-5-fluoro-4-oxo-3H-pyrimidine-2-carboxamide] | 8.37 | 6.82 | 
CC(CNC(=O)c1ncc(F)c(=O)[nH]1)(Cc1ccc(F)cc1F)C1CC1 (single isomer, unassigned) [Example 258, N-[2-cyclopropyl-3-(2,4-difluorophenyl)-2-methylpropyl]-5-fluoro-4-oxo-3H-pyrimidine-2-carboxamide] | 7.71 | 6.39 | 
O=C(NCC1(Cc2ccccc2)CCC1)c1cncc(O)c1 [Example 1, N-((1-benzylcyclobutyl)methyl)-5-hydroxynicotinamide] | 7.27 | 6.10 | 
O=C(NCC1(Cc2ccccc2)CCC1)c1cncc(O)n1 [Example 2, N-((1-benzylcyclobutyl)methyl)-6-hydroxypyrazine-2-carboxamide] | 6.95 | 5.64 | 
Cc1ncc(C(=O)NCC2(Cc3ccccc3)CCC2)cc1O [Example 3, N-((1-benzylcyclobutyl)methyl)-5-hydroxy-6-methylnicotinamide] | 6.89 | 6.02 | 
Cc1c(O)cncc1C(=O)NCC1(Cc2ccccc2)CCC1 [Example 4, N-((1-benzylcyclobutyl)methyl)-5-hydroxy-4-methylnicotinamide] | 6.56 | 5.77 | 
O=C(NCC1(Cc2ccccc2)CCC1)c1cnn[nH]1 [Example 5, N-((1-benzylcyclobutyl)methyl)-1H-1,2,3-triazole-5-carboxamide] | 6.72 | 5.61 | 
O=C(NCC1(Cc2ccccc2)CCC1)c1nccc(=O)[nH]1 [Example 7, N-((1-benzylcyclobutyl)methyl)-6-oxo-1,6-dihydropyrimidine-2-carboxamide] | 7.42 | 5.97 | 
O=C(NCC1(Cc2ccccc2)CCC1)c1nc(=O)[nH][nH]1 [Example 8, N-((1-benzylcyclobutyl)methyl)-5-oxo-2,5-dihydro-1H-1,2,4-triazole-3-carboxamide] | 7.40 | 6.32 | 
Cc1cnc(C(=O)NCC2(Cc3ccccc3)CCC2)[nH]c1=O [Example 9, N-((1-benzylcyclobutyl)methyl)-5-methyl-6-oxo-1,6-dihydropyrimidine-2-carboxamide] | 7.33 | 6.14 | 
Cn1nc(C(=O)NCC2(Cc3ccccc3)CCC2)[nH]c1=O [Example 10, N-((1-benzylcyclobutyl)methyl)-1-methyl-5-oxo-4,5-dihydro-1H-1,2,4-triazole-3-carboxamide] | 7.42 | 6.58 | 

Other lines, results leading:

mPTP Rat brain pIC50 [1] | mPTP Rat liver pIC50 [2] | mPTP rat brain mitochondria pIC50 ([1]; Fluo5N fluorescence at 10 min after 75 μM Ca2+) | Compound
8.29 | 7.13 |  | CC(CNC(=O)c1ncc(F)c(=O)[nH]1)(Cc1ccc(F)cc1)C1CC1 (single isomer, unassigned) [Example 261, N-[2-cyclopropyl-3-(4-fluorophenyl)-2-methylpropyl]-5-fluoro-4-oxo-3H-pyrimidine-2-carboxamide]
7.45 | 6.00 |  | CC(CNC(=O)c1ncc(F)c(=O)[nH]1)(Cc1ccc(F)cc1)C1CC1 (single isomer, unassigned) [Example 262, N-[2-cyclopropyl-3-(4-fluorophenyl)-2-methylpropyl]-5-fluoro-4-oxo-3H-pyrimidine-2-carboxamide]
8.09 | 6.54 |  | CC(CNC(=O)c1ncc(Cl)c(=O)[nH]1)(Cc1ccc(F)cc1)C1CC1 (single isomer, unassigned) [Example 263, 5-Chloro-N-[2-cyclopropyl-3-(4-fluorophenyl)-2-methylpropyl]-4-oxo-3H-pyrimidine-2-carboxamide]
7.29 | 6.09 |  | CC(CNC(=O)c1ncc(Cl)c(=O)[nH]1)(Cc1ccc(F)cc1)C1CC1 (single isomer, unassigned) [Example 264, 5-Chloro-N-[2-cyclopropyl-3-(4-fluorophenyl)-2-methylpropyl]-4-oxo-3H-pyrimidine-2-carboxamide]
7.32 | 6.55 |  | Cc1cnc(C(=O)NCC(C)(Cc2ccc(F)cc2)C2CC2)[nH]c1=O (single isomer, unassigned) [Example 267]
7.02 | 6.04 |  | Cc1cnc(C(=O)NCC(C)(Cc2ccc(F)cc2)C2CC2)[nH]c1=O (single isomer, unassigned) [Example 268]
7.73 | 6.78 |  | CC(CNC(=O)c1cc(O)no1)(Cc1ccc(F)cc1F)C1CC1 (single isomer, unassigned) [Example 269]
6.51 | 5.39 |  | CC(CNC(=O)c1cc(O)no1)(Cc1ccc(F)cc1F)C1CC1 (single isomer, unassigned) [Example 270]
7.59 | 6.83 |  | CC(CNC(=O)c1cc(O)no1)(Cc1ccc(F)cc1)C1CC1 (single isomer, unassigned) [Example 271]
6.35 | 4.52 |  | CC(CNC(=O)c1cc(O)no1)(Cc1ccc(F)cc1)C1CC1 (single isomer, unassigned) [Example 272]
7.92 | 6.50 |  | CC(CNC(=O)c1noc(=O)[nH]1)(Cc1ccc(F)cc1F)C1CC1 (single isomer, unassigned) [Example 273]
8.5 | 6.85 |  | CC(CNC(=O)c1noc(=O)[nH]1)(Cc1ccc(F)cc1F)C1CC1 (single isomer, unassigned) [Example 274]
8.57 | 6.75 | highest activity | CC(CNC(=O)c1noc(=O)[nH]1)(Cc1ccc(F)cc1)C1CC1 (single isomer, unassigned) [Example 275, N-(2-cyclopropyl-3-(4-fluorophenyl)-2-methylpropyl)-5-oxo-4,5-dihydro-1,2,4-oxadiazole-3-carboxamide]
7.27 | 5.82 |  | CC(CNC(=O)c1noc(=O)[nH]1)(Cc1ccc(F)cc1)C1CC1 (single isomer, unassigned) [Example 276, N-(2-cyclopropyl-3-(4-fluorophenyl)-2-methylpropyl)-5-oxo-4,5-dihydro-1,2,4-oxadiazole-3-carboxamide]
